# Assay results as given in patent US9522920B2, “Bromodomain inhibitors and uses thereof” (Constellation Pharmaceuticals, Inc., priority 2010, dated 2016).
# Where two headings read alike, the source gives them in different places.
# Legend:
# BRD4(BD1) = biological target: T1, BRD4(BD1) (Homo sapiens, UniProt O60885); assay: BRD4 AlphaLisa binding assay (Alphascreen); details: Table 6; BRD4(BD1) 30 nM, H4-tetraacetyl peptide 200 nM; read-out: BRD4 Alphascreen IC50
# T1 construct: His; made in house
# Outline: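 BRD4(BD1) (30 nM) incubated 20 min at room temperature with peptide (200 nM) and compound in 40 mM HEPES pH 7.0, 40 mM NaCl, 1 mM DTT, 0.01% BSA, 0.008% Brij-35, 1.2% DMSO.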
# IL-6 secretion = assay: Cell-based IL-6 quantification assay (ELISA, Mesoscale) in LPS-stimulated THP-1 cells; details: Table 7, THP-1 cells, LPS 4 μg/mL, 16 h, normalised to CellTiter-Glo, read-out: IL6
# Outline: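 THP-1 cells stimulated with LPS at 4 μg/mL final and exposed to compounds for 16 h. Supernatant IL-6 measured by Mesoscale ELISA and normalized to CellTiter-Glo cell content. Percent inhibition derived from that ratio.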
# MYC mRNA [1] = assay: cMyc RNA quantification assay (QuantiGene) in Raji cells; assay type: cell-based; details: Table 7, Raji (Burkitt's lymphoma) cells, 4 h
# Outline: (§1)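 MV4:11 or Raji cells were treated with a range of compound concentrations for 4 h. MYC mRNA was measured by QuantiGene 2.0, and biological duplicates were averaged and normalized to DMSO vehicle to give percent MYC mRNA.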
# MYC mRNA [2] = assay: cMyc RNA quantification assay (QuantiGene) in MV4:11 cells; assay type: cell-based; details: read-out: MYC-MV411
# Outline: as §1
# [3] = tested on: LPS-induced IL-6 production; assay: In-vivo inhibition of LPS-induced IL-6 production; design: species or system Balb/C mice; details: for ED50: Mus musculus; for ED50 (mg/kg): Table 15, oral gavage 30 min prior to LPS, plasma IL-6 ELISA two hours after LPS challenge, 50% inhibition compared to vehicle
# Protocol: Female Balb/C mice, 6 weeks old upon arrival at animal facility, and weighing 18-20 g/mouse were used for this assay. The mice are acclimated in animal facility for 5-7 days prior experiment initiation. Mice were randomly divided into experimental groups to include several doses of test article, and vehicle and dexamethasone controls. Mice were fasted from 12 hours prior to study initiation (dosing), but allowed free access to water. Mice were dosed following study group design by oral gavage 30 min prior to LPS stimulation. Dosing interval time was 1 min/mouse.
# Two hours after LPS challenge animals were anesthetized by CO2 inhalation, and blood was sampled via cardiac puncture into EDTA coated tubes and placed on ice. Plasma was separated by centrifugation at 3000 g at 4° C. for 15 min. The separated plasma was divided into aliquots (50 ul/aliquot) and stored at −80° C. until plasma IL-6 ELISA and drug levels were analyzed.
# Myc RNA = Myc RNA quantification in xenograft model; assay type: in vivo, NOD SCID mice; details: for ED50: Mus musculus, Raji, po
# Protocol: Female NOD SCID mice (Harlan) were inoculated s.c. with 3×10^6 Raji cells per mouse resuspended in 10% Matrigel. Tumors were grown until they reached a size of 200 mm^3 to 400 mm^3 as measured by caliper. Mice were treated orally (5 mL/kg) with different doses of compounds prepared as a 2 mg/mL suspension of Carboxy-methyl-cellulose. At the indicated time points after treatment, tumors were harvested. RNA was isolated by using TRIzol extraction and processed for QuantiGene® Assay.
# [4] = Homo sapiens, MV4-11, 4 h, Table 7, MV4:11 (AML) cells
# [5] = Table 7, MV4:11 (AML) cells, 4 h
Compound,IC50 (BRD4(BD1)),IC50 (MYC mRNA [1]; Homo sapiens),IC50 (MYC mRNA [2]; [4]),IC50 (MYC mRNA [1]),IC50 (MYC mRNA [2]; [5]),"IC50 (IL-6 secretion; Homo sapiens, THP-1, 16 h)",ED50 [3],ED50 (Myc RNA),IC50 (IL-6 secretion),ED50 (mg/kg) [3],"ED50 (mg/kg) (Myc RNA; Table 16, Raji xenograft tumors, oral treatment, Myc RNA by QuantiGene, 50% inhibition compared to vehicle)"
"Cc1noc2c1-c1sc(C)c(C)c1C(c1ccc(Cl)cc1)=N[C@H]2CC(N)=O [Compound 110, 2-((6S)-4-(4-chlorophenyl)-2,3,9-trimethyl-6H-isoxazolo[5,4-c]thieno[2,3-e]azepin-6-yl)acetamide]",< 500 nM,< 500 nM,< 500 nM,,,< 500 nM,< 10 mg/kg,20 to 50 mg/kg,,,
Cc1noc2c1-c1sc(C)c(C)c1C(c1ccc(C#N)cc1)=NC2CC(=O)NCCF (centres unmarked) [Compound 114],< 500 nM,< 500 nM,,,,< 500 nM,,20 to 50 mg/kg,,,
Cc1noc2c1-c1ccccc1C(c1ccc(C#N)cc1)=N[C@H]2CC(N)=O [Compound 148],< 500 nM,,,< 500 nM,< 500 nM,,,,< 500 nM,+ (“+” indicates and ED50 of between 10 and 50 mg/kg),
"CCNC(=O)C[C@@H]1N=C(c2ccc(Cl)cc2)c2c(sc(C)c2C)-c2c(C)noc21 [Compound 165, 2-((6S)-4-(4-chlorophenyl)-2,3,9-trimethyl-6H-isoxazolo[4,5-e]thieno[3,2-c]azepin-6-yl)-N-ethylacetamide]",< 500 nM,< 500 nM,,,,< 500 nM,10 to 50 mg/kg,,,,

# The next lines start with results.
IC50 (BRD4(BD1)),IC50 (MYC mRNA [1]; Homo sapiens),IC50 (MYC mRNA [2]; [4]),IC50 (MYC mRNA [1]),IC50 (MYC mRNA [2]; [5]),Compound,"IC50 (IL-6 secretion; Homo sapiens, THP-1, 16 h)",ED50 [3],ED50 (Myc RNA),IC50 (IL-6 secretion),ED50 (mg/kg) [3],"ED50 (mg/kg) (Myc RNA; Table 16, Raji xenograft tumors, oral treatment, Myc RNA by QuantiGene, 50% inhibition compared to vehicle)"
< 500 nM,< 500 nM,,,,Cc1cccc2c1C(c1ccc(F)cc1)=NC(CC(N)=O)c1onc(C)c1-2 (centres unmarked) [Compound 129],< 500 nM,< 10 mg/kg,20 to 50 mg/kg,,,
< 500 nM,< 500 nM,< 500 nM,,,Cc1cccc2c1C(c1ccc(C(F)(F)F)cc1)=NC(CC(N)=O)c1onc(C)c1-2 (centres unmarked) [Compound 132],< 500 nM,< 10 mg/kg,< 20 mg/kg,,,
,,,< 500 nM,< 500 nM,Cc1noc2c1-c1ccccc1C(c1ccc(Cl)cc1)=N[C@H]2CC(N)=O [Compound 144],,,,< 500 nM,++ (“++” indicates an ED50 of less than 10 mg/kg),++ (“++” indicates an ED50 of less than 20 mg/kg)
